# Experimental data: patent US20250295795A1, “PEPTIDE” (priority 2021, published 2025)
# “Also recorded” adds a separate entry of the source.
# Key:
# CHO cells = assay: Live cell confocal microscopy: cellular uptake and intracellular distribution of Tat conjugates in CHO cells; type: cell-based, Chinese hamster; settings: 1 μM, 60 min, serum-free DMEM, post-wash
# Protocol: (§1) The cellular uptake and intracellular distribution of Tat-trimers and monomeric controls was investigated by performing live cell confocal microscopy of HeLa (human, cervical cancer) and CHO (Chinese hamster, epithelial) cells incubated with Tat conjugates (1 μM) in serum-free DMEM (60 min). Following washing, images were acquired using a Zeiss 780 confocal microscope fitted with an incubation chamber (FIG. 2). In accordance with observations that free Tat in the cytosol readily enters the nucleus and strongly binds to nucleoli,^29 homogenous staining of cytoplasm and nucleoli were considered as indicative of cells having accumulated free conjugate, not confined to endosomes, for quantification purposes. […] The uptake and intracellular distribution of tri-Tat A is similar in live Hela and CHO cells (FIG. 2b,d,e).
# (§2) HeLa and CHO cells were cultured in DMEM supplemented with 10% FBS and penicillin/streptomycin. For post-wash experiments, Tat conjugate was added to the cells in serum free medium, cells incubated at 37° C. in an atmosphere of 5% CO2, culture medium removed at the desired time point, cells washed and transferred to the microscope for imaging. For time course or pre-wash experiments, cells were transferred to the microscope (incubation chamber at 37° C., 5% CO2) and Tat conjugate added directly to cell medium and cells imaged at desired time points. Co-delivery experiments were conducted by adding peptide trimer immediately followed by cargo into serum free medium. Samples were visualised using a Zeiss LSM 780 inverted confocal microscope fitted with a XLmultiS1 incubation chamber and Plan-Apochromat 63×/1.40 Oil DIC M27 objective. Images were analysed using ImageJ software. Digital adjustments and image processing are consistent throughout the manuscript, unless otherwise stated in the figure legend. Statistical analysis was carried out using GraphPad Prism 7 software and all data used for statistical analysis consists of measurements from distinct cells. Where applicable a parametric, unpaired, two-tailed t-test was used for statistical testing.
# [1] = MTT assay of metabolic activity (cell viability); type: cell-based; settings: human, HeLa cells, 1 μM for 60 min
# Protocol: Toxicity is a concern with potent intracellular delivery agents. We used an MTT assay to measure the metabolic activity of Hela cells treated with 1 μM tri-Tat A or tri-cTat B for 60 min (FIG. 4d). […] Tri-Tat A is slightly more toxic, which is consistent with the observation that the trimer forms membrane pores (cells 84.4% viable, 4 h post-treatment; 80.2% viable, 3 days post-treatment). The favourable uptake mechanism and low toxicity of tri-cTat B lead us to investigate this agent for its potential to transport biomacromolecular cargos into cells.
# HeLa cells [2] = assay: Live cell confocal microscopy: cellular uptake and intracellular distribution of Tat conjugates in HeLa cells; type: cell-based, human
# Protocol: as §1, with “[…]).” for “epithelial) cells incubated with Tat conjugates (1 μM) in serum-free DMEM (60 min).”
# Following washing, images were acquired using a Zeiss 780 confocal microscope fitted with an incubation chamber. In accordance with observations that free Tat in the cytosol readily enters the nucleus and strongly binds to nucleoli,^29 homogenous staining of cytoplasm and nucleoli were considered as indicative of cells having accumulated free conjugate, not confined to endosomes, for quantification purposes. The results were compared to tri-Tat A (8) and tri-cTat B (17).
# as §2
# HeLa cells [3] = assay: Time course of uptake in Hela cells (continuous live cell confocal microscopy, ROI profile analysis); type: cell-based, human; settings: 1 μM; representative cells
# Protocol: To better understand the mechanism by which tri-Tat A and tri-cTat B enter the cytosol and the nucleus, we investigated the uptake kinetics of the conjugates during the first 15 min after their addition to Hela cells using confocal live cell microscopy. Tri-Tat A (FIG. 3a) or tri-cTat B (FIG. 3b) (1 μM) were added to the cells and images acquired from 1 min to 15 min at 60 sec intervals. The two trimers show distinct uptake patters into Hela cells; to better understand the difference in uptake kinetics, we drew cross sectional profile plots through representative cells treated with tri-Tat A (FIG. 3c) and tri-cTat B (FIG. 3d). […] To investigate whether findings in individual cells also apply to larger populations, we extended the plot profile analysis by designating regions of interest (ROI) corresponding to plasma membrane, cytosol (excluding endosomes), nucleus, and nucleoli along the cross section, using information from brightfield images.^30 Average fluorescence intensities for each ROI, at each time point, in six cells per treatment group were calculated and plotted in FIGS. 3e-3h.
# as §2
# HeLa cells [4] = assay: Membrane integrity / porosity: propidium iodide uptake after trimer treatment; type: cell-based, human; settings: 1 μM trimer; 40 μM PI added 20 min after trimer
# Protocol: To assess membrane integrity, 40 μM propidium iodide (PI; a cell impermeable dye), was added to Hela cells 20 min after the addition of the peptide trimer.
compound,measurement,setting,value
N=C(N)NCCC[C@@H]1NC(=O)[C@H](CCCNC(=N)N)NC(=O)[C@H](CCCNC(=N)N)NC(=O)[C@H](CCC(N)=O)NC(=O)[C@H](CCCNC(=N)N)NC(=O)[C@H](CCCNC(=N)N)NC(=O)[C@H](CCCCN)NC(=O)[C@H](CCCCN)NC(=O)[C@H](CCCNC(=N)N)NC(=O)[C@H](CCCCn2cc(COCC(COCc3cn(CCCCCCNC(=O)c4ccc5c(c4)C(=O)OC54c5ccc(N)c(S(=O)(=O)O)c5Oc5c4ccc(N)c5S(=O)(=O)O)nn3)(COCc3cn(CCCC[C@@H]4NC(=O)CC[C@@H](C(N)=O)NC(=O)[C@H](CCCNC(=N)N)NC(=O)[C@H](CCCNC(=N)N)NC(=O)[C@H](CCCNC(=N)N)NC(=O)[C@H](CCC(N)=O)NC(=O)[C@H](CCCNC(=N)N)NC(=O)[C@H](CCCNC(=N)N)NC(=O)[C@H](CCCCN)NC(=O)[C@H](CCCCN)NC(=O)[C@H](CCCNC(=N)N)NC4=O)nn3)COCc3cn(CCCC[C@@H]4NC(=O)CC[C@@H](C(N)=O)NC(=O)[C@H](CCCNC(=N)N)NC(=O)[C@H](CCCNC(=N)N)NC(=O)[C@H](CCCNC(=N)N)NC(=O)[C@H](CCC(N)=O)NC(=O)[C@H](CCCNC(=N)N)NC(=O)[C@H](CCCNC(=N)N)NC(=O)[C@H](CCCCN)NC(=O)[C@H](CCCCN)NC(=O)[C@H](CCCNC(=N)N)NC4=O)nn3)nn2)NC(=O)CC[C@@H](C(N)=O)NC1=O (stereo partly shown) [tri-cTat B],cellular uptake and intracellular distribution,CHO cells,taken up into the cytosol and nucleoli
same,"viability at 4 h, 1 µM",[1]; 4 h post-treatment,94.3%
same,"viability at 72 h, 1 µM",[1]; 3 days post-treatment,96.5%
same,"transduction efficacy in comparison (average fluorescence intensity per cell, percentage of transduced cells)","HeLa cells [2]; 1 μM, 60 min, serum-free",more effective at cellular transduction in comparison to tri-cTat A
same,cellular uptake and intracellular distribution,"HeLa cells [2]; HeLa cells, 1 μM, 60 min, serum-free DMEM, post-wash",taken up into the cytosol and nucleoli
same,number of transduced cells,"HeLa cells [2]; serum free, 1 μM",61%
same,number of transduced cells,"HeLa cells [2]; serum supplemented medium, 1 μM, 60 min",42%
same,number of transduced cells,"HeLa cells [2]; serum supplemented medium, 2 μM, 60 min",79%
same,association with plasma membrane (profile plots),HeLa cells [3],little association with plasma membrane
same,propidium iodide (PI) uptake / pore formation,HeLa cells [4],does not form pores in the plasma membrane; also recorded: PI negative
